# Data reported in patent US11464751B2, “Use of fluoroethylnormemantine for the prevention and treatment of anxiety” (REST THERAPEUTICS, priority 2017, dated 2022).
# Experiments:
# Format in all cases: in vivo, rat
# [1] = test system: naive rats (Wistar); assay: Forced swimming test; details: for Rat behavior over the period of time 1 to 6 minutes: frenetic movement / Rat behavior over the period of time 1 to 6 minutes: immobility (ies): second day, 30 min before; for Rat behavior over the period of time 1 to 6 minutes: immobility (ies): in s; for immobility time compared with control: all dose levels, particularly 10 mg/kg, p<0.001
# Experimental: • the forced swimming test: This test has been used for a number of years with rats or mice to test the activity of antidepressants (F. Borsini, Psychopharmacology (1988) 94:147-160) and consists of placing the animal in a bowl filled with room-temperature water. After 15 minutes (pre-test session), the animal is taken out of the water and dried. Twenty-four hours later, the animal is again exposed to the previous conditions and the time of total immobility for a period of 5 minutes is recorded (test session). The animal is considered immobile when it performs only the movements necessary to keep its head out of the water. This immobility is easier to assess in rats than in mice, which have less explicit movements.
# (§1) In the following examples, the effects of memantine, propranolol and fluoroethylnormemantine (FENM, the subject of the present invention) are studied in naive rats (Wistar) subjected to various tests related to depression or anxiety and then compared.
# (§2) The test substances are administered to rats intraperitoneally in a volume of 5 ml/kg, 30 minutes before the behavioral tests are performed.
# (§3) The injected solutions contain either of the molecules in the form of one of their salts, a hydrochloride (memantine·HCl and FENM·HCl) for the nitrogen derivatives and as such for propranolol, at the concentrations indicated below in a mixture of 95% (NaCl 0.9% ww in water)/5% ethanol. In each experiment, the dose per kilogram is referenced.
# In the forced swimming test, rats (12 per group) are forced to swim in a tank filled with 23° C. water (10 minutes on the first day to allow for habituation to the medium and 6 minutes on the second day).
# The behavior of the rats (stopping swimming, decreasing activity) is quantified by a video monitoring system.
# The therapeutic solutions to be tested are administered on the second day 30 minutes before the experiment.
# [2] = test system: naive rats (Wistar); assay: Fear conditioning + extinction + stabilization (PTSD model)
# Source text: Several animal models have been developed to mimic the traumatic events that induce intense and recurrent fear symptoms characteristic of PTSD. • Pavlovian fear conditioning of the animals: This animal model consists of Pavlovian-type fear conditioning (Zovkic, Neuropsychopharmacology Reviews (2013) 38, 77-93): mice (or rats) are trained to associate exposure to danger (electric shock, etc.) with the presence of a specific cue or environment (sound cue for example). The memory of this association (danger-cue) is later tested by measuring tetany behavior (through fear) when the animal is re-exposed to the conditioning cue in the absence of real danger.
# Again, the occurrence of symptoms of PTSD are assessed after a certain period of time, without exposure to the hazard, to simulate the long-term onset of PTSD pathology. • Fear extinction: After a fear conditioning as described above it can be of interest to apply a protocol to extinguish this fear. Classically, this phase is placed 24 hours after the conditioning phase.
# The extinction protocols model the relearning of the normal (non-fear-motivated) response to the cue (sound) and are very useful in modeling PTSD. • Fear stabilization: It can be useful, to assess the performance of a treatment, to add a stabilization phase after the extinction phase, spaced 24 h apart. Typically, this phase puts the animals back under the extinction phase conditions. It then allows the detection of staggered performances of the treatments, but also of the resurgence of tetany (rebound effect).
# as §1, §2, §3
# The applicant used a fear conditioning test in which the clue (neutral conditional stimulus) is a sound, coupled with a danger (aversive unconditional stimulus) which is an electric shock delivered by the floor of the box. This conditioning is followed by a fear extinction phase with injection of the treatment solutions to be tested and then by a test phase itself. • Fear Conditioning Phase (FC): fear conditioning takes place in a standard conditioning box (context A, white box in Table 7) and the rats (8 per group) are subjected to 3 “sound-electroshock” pairs at times of 180 s, 381 s and 582 s after being placed in the box. Each sound lasts 20 s and each electroshock lasts 1 s with a current of 1 mA. • The fear extinction phase (Ext.) is conducted as follows: the rats are placed in a box similar to the one that will be used for the final test (context B, pink box in Table 7), for a 25-minute session. During this session, 24 presentations are made with the same sound as that used during the conditioning session (20 s each, 35 s apart). Of course, no electric shock is delivered, and the percentage of time of tetany (“freezing”) during the phase is recorded. • Stabilization phase: the day after the extinction phase, 30 minutes before the test phase, […] of 3 sounds (same sequence as used for conditioning), recording the percentage of time they remain still during this test phase. […]
# [3] = test system: naive rats (Wistar); assay: Pre-pulse inhibition (PPI) test, sensory filtering; details: for Percentage of pre-pulse inhibition, Average: average over first pulse intensities; for effect on PPI (schizophrenia-inducing effect): memantine 10 mg/kg (p<0.01), FENM even at high dose (20 mg/kg)
# Source text: • Pre-pulse inhibition (PPI) test: One of the major problems of treatments targeting the central nervous system remains the achievement of the desired effect without the appearance of crippling psychological side effects, even exceeding the therapeutic benefit of the treatment. These effects are often significant (the rebound effect of benzodiazepines) or even paradoxical (the anxiety-producing effect of short-term serotonin reuptake inhibitors). In particular, they can induce a destabilization of sensory filtering and generate symptoms similar to schizophrenia.
# (§4) Pre-impulse inhibition testing is based on the brain's ability to adapt to a moderate-intensity stimulus in order to limit the effect of the same high-intensity stimulus. In this test, the animals are placed in a soundproof cage and subjected either to a sound pulse of 120 decibels (dB) or to a sequence of 2 pulses spaced about 100 milliseconds apart, the second pulse being of fixed intensity of 120 dB and the first of variable intensity between 70 and 85 dB).
# In animals with psychotic disorders of a schizophrenic nature, this inhibition is more or less eliminated.
# as §1, §2, §3
# as §4, with “the animals (12 per group) are placed” for “the animals are placed”, “being of a fixed intensity” for “being of fixed intensity”
# [4] = 10 mg/kg i.p., first pulse 72 dB
# [5] = 10 mg/kg i.p., first pulse 76 dB
# [6] = 10 mg/kg i.p., first pulse 80 dB
# [7] = 10 mg/kg i.p., first pulse 84 dB
"Percentage of pre-pulse inhibition, Average ([3]; 10 mg/kg i.p.)","Percentage of pre-pulse inhibition as a function of the intensity of the first pulse [3, 4]","Percentage of pre-pulse inhibition as a function of the intensity of the first pulse [3, 5]","Percentage of pre-pulse inhibition as a function of the intensity of the first pulse [3, 6]","Percentage of pre-pulse inhibition as a function of the intensity of the first pulse [3, 7]",effect on PPI (schizophrenia-inducing effect) [3],SMILES,Rat behavior over the period of time 1 to 6 minutes: frenetic movement ([1]; 1 mg/kg i.p.),Rat behavior over the period of time 1 to 6 minutes: immobility (ies) ([1]; 1 mg/kg i.p.),Rat behavior over the period of time 1 to 6 minutes: frenetic movement ([1]; 3 mg/kg i.p.),Rat behavior over the period of time 1 to 6 minutes: immobility (ies) ([1]; 3 mg/kg i.p.),Rat behavior over the period of time 1 to 6 minutes: frenetic movement ([1]; 10 mg/kg i.p.),Rat behavior over the period of time 1 to 6 minutes: immobility (ies) ([1]; 10 mg/kg i.p.),immobility time compared with control [1],further results
45%,27%,39%,51%,64%,induces no effect,NC12CC3CC(C1)CC(CCF)(C3)C2,43.2 s,157.8,47.6 s,164.3,60.6 s,140.5,very significant (p<0.001) decrease,"Percentage of time of tetany (freezing) during the stabilization phase ([2]; 5 mg/kg, Early treatment: one injection 30 minutes before the extinction phase): 21%; Percentage of time of tetany (freezing) during the stabilization phase ([2]; 5 mg/kg, Late treatment: one injection 30 minutes before the stabilization phase): 26%; Percentage of time of tetany (freezing) during the stabilization phase ([2]; 5 mg/kg, Protective effect: one injection 30 minutes before the conditioning phase): 23%; Percentage of time of tetany (freezing) during the stabilization phase ([2]; 10 mg/kg, Early treatment: one injection 30 minutes before the extinction phase): 25%; Percentage of time of tetany (freezing) during the stabilization phase ([2]; 10 mg/kg, Late treatment: one injection 30 minutes before the stabilization phase): 4%; Percentage of time of tetany (freezing) during the stabilization phase ([2]; 10 mg/kg, Protective effect: one injection 30 minutes before the conditioning phase): 6%; Percentage of time of tetany (freezing) during the stabilization phase ([2]; 20 mg/kg, Early treatment: one injection 30 minutes before the extinction phase): 6%; Percentage of time of tetany (freezing) during the stabilization phase ([2]; 20 mg/kg, Late treatment: one injection 30 minutes before the stabilization phase): 2%; Percentage of time of tetany (freezing) during the stabilization phase ([2]; 20 mg/kg, Protective effect: one injection 30 minutes before the conditioning phase): 2%; tetany in the stabilization phase compared with control ([2]; administered at conditioning, early or late post-traumatic treatment): virtually eliminate; Percentage of pre-pulse inhibition, Average ([3]; 5 mg/kg i.p.): 42%; Percentage of pre-pulse inhibition as a function of the intensity of the first pulse ([3]; 5 mg/kg i.p., first pulse 72 dB): 24%; Percentage of pre-pulse inhibition as a function of the intensity of the first pulse ([3]; 5 mg/kg i.p., first pulse 76 dB): 37%; Percentage of pre-pulse inhibition as a function of the intensity of the first pulse ([3]; 5 mg/kg i.p., first pulse 80 dB): 47%; Percentage of pre-pulse inhibition as a function of the intensity of the first pulse ([3]; 5 mg/kg i.p., first pulse 84 dB): 60%; Percentage of pre-pulse inhibition, Average ([3]; 20 mg/kg i.p.): 48%; Percentage of pre-pulse inhibition as a function of the intensity of the first pulse ([3]; 20 mg/kg i.p., first pulse 72 dB): 31%; Percentage of pre-pulse inhibition as a function of the intensity of the first pulse ([3]; 20 mg/kg i.p., first pulse 76 dB): 46%; Percentage of pre-pulse inhibition as a function of the intensity of the first pulse ([3]; 20 mg/kg i.p., first pulse 80 dB): 54%; Percentage of pre-pulse inhibition as a function of the intensity of the first pulse ([3]; 20 mg/kg i.p., first pulse 84 dB): 62%"
31%,19%,24%,36%,44%,induces an inhibition of the PPI effect,"CC12CC3CC(C)(C1)CC(N)(C3)C2 [Memantine, memantine]",55.1 s,139.8,48.7 s,145.7,67.2 s,119.7,very significant (p<0.001) decrease,rebound effect (increased tetany) compared with control during the stabilization phase ([2]; 10 mg/kg administered during the extinction phase): +25%
